# Results: patent US12285475B2, “Bacterium capable of inducing TH1 cells” (priority 2016, dated 2025)
# Like-named read-outs stand apart in the source and are kept apart here.
# Tests used:
# Ka-11E12 = Ka-11E12 antibiotic susceptibility (MIC / growth in presence of antibiotics); type: cell-based, Klebsiella aeromobilis; conditions: against Ka-11E12, Table 14
# Method: FIG. 36 is a graph for analyzing the Ka-11E12 growths in the presence of antibiotics. Ka-11E12 was cultured in a 96-well plate in the presence of different concentrations of the antibiotics at 37° C. for 24 hours. The bacterium growths were determined based on the absorbance measurement at a wavelength of 630 nm. Each data represents the mean±standard deviation based on the results of at least three independent experiments.
# Kp-2H7 = Kp-2H7 antibiotic susceptibility (MIC / growth in presence of antibiotics); type: cell-based, Klebsiella pneumoniae; conditions: for resistance of Kp-2H7 to antibiotic: FIG. 11 and Table 12, culture 37° C. 24 hours, absorbance 630 nm
# Method: The bacterium growths were determined based on the absorbance measurement at a wavelength of 630 nm.
# [1] = Klebsiella, 24 h, read-out: MIC
# [2] = Klebsiella pneumoniae, 24 h, read-out: MIC
Compound,MIC (Ka-11E12; [1]),MIC (Kp-2H7; [2]),further results
NCC[C@H](O)C(=O)N[C@@H]1C[C@H](N)[C@@H](O[C@H]2O[C@H](CN)[C@@H](O)[C@H](O)[C@H]2O)[C@H](O)[C@H]1O[C@H]1O[C@H](CO)[C@@H](O)[C@H](N)[C@H]1O [Amikacin],≤ 8 µg/mL,≤ 8 µg/mL,
CC1(C)S[C@@H]2[C@H](NC(=O)[C@H](N)c3ccccc3)C(=O)N2[C@H]1C(=O)O [Ampicillin],> 16 µg/mL,> 16 µg/mL,
C[C@H]1[C@H](NC(=O)/C(=N\OC(C)(C)C(=O)O)c2csc(N)n2)C(=O)N1S(=O)(=O)O [Aztreonam],≤ 1 µg/mL,≤ 1 µg/mL,
N[C@@H](C(=O)N[C@@H]1C(=O)N2C(C(=O)O)=C(Cl)CS[C@H]12)c1ccccc1 [Cefaclor],8 µg/mL,≤ 4 µg/mL,
Cc1nnc(SCC2=C(C(=O)O)N3C(=O)[C@@H](NC(=O)Cn4cnnn4)[C@H]3SC2)s1 [Cefazolin],> 4 µg/mL,1 µg/mL,
CO[C@@]1(NC(=O)CSCC#N)C(=O)N2C(C(=O)O)=C(CSc3nnnn3C)CS[C@@H]21 [Cefmetazole],16 µg/mL,≤ 8 µg/mL,
CO/N=C(\C(=O)N[C@@H]1C(=O)N2C(C(=O)O)=C(COC(C)=O)CS[C@H]12)c1csc(N)n1 [Cefotaxime],≤ 0.5 µg/mL,≤ 0.5 µg/mL,
CN(C)CCn1nnnc1SCC1=C(C(=O)O)N2C(=O)[C@@H](NC(=O)Cc3csc(N)n3)[C@H]2SC1 [Cefotiam],≤ 0.5 µg/mL,≤ 0.5 µg/mL,
CO/N=C(\C(=O)N[C@@H]1C(=O)N2C(C(=O)[O-])=C(C[n+]3cccc4c3CCC4)CS[C@H]12)c1csc(N)n1 [Cefpirome],≤ 4 µg/mL,≤ 4 µg/mL,
COCC1=C(C(=O)OC(C)OC(=O)OC(C)C)N2C(=O)[C@@H](NC(=O)/C(=N\OC)c3csc(N)n3)[C@H]2SC1 (some centres unmarked) [Cefpodoxime-Proxetil],≤ 1 µg/mL,≤ 1 µg/mL,
CC(C)(O/N=C(\C(=O)N[C@@H]1C(=O)N2C(C(=O)[O-])=C(C[n+]3ccccc3)CS[C@H]12)c1csc(N)n1)C(=O)O [Ceftazidime],≤ 1 µg/mL,≤ 1 µg/mL,
CO[C@@]1(NC(=O)CSC(F)F)C(=O)N2C(C(=O)O)=C(CSc3nnnn3CCO)CO[C@@H]21 [Flomoxef],≤ 8 µg/mL,≤ 8 µg/mL,
C[C@@H]1O[C@@H]1P(=O)(O)O [Fosfomycin],16 µg/mL,16 µg/mL,
C[C@H]1COc2c(N3CCN(C)CC3)c(F)cc3c(=O)c(C(=O)O)cn1c23 [Levofloxacin],≤ 1 µg/mL,≤ 1 µg/mL,
C[C@@H](O)[C@H]1C(=O)N2C(C(=O)O)=C(S[C@@H]3CN[C@H](C(=O)N(C)C)C3)[C@H](C)[C@H]12 [Meropenem],≤ 0.25 µg/mL,≤ 0.25 µg/mL,
CN(C)c1ccc(O)c2c1C[C@H]1C[C@H]3[C@H](N(C)C)C(O)=C(C(N)=O)C(=O)[C@@]3(O)C(O)=C1C2=O [Minocycline],≤ 2 µg/mL,≤ 2 µg/mL,
CCN1CCN(C(=O)N[C@@H](C(=O)N[C@@H]2C(=O)N3[C@@H]2SC(C)(C)[C@@H]3C(=O)O)c2ccccc2)C(=O)C1=O [Piperacillin],≤ 8 µg/mL,≤ 8 µg/mL,
Cc1ncc([N+](=O)[O-])n1CCO [metronidazole],,,resistance of Kp-2H7 to antibiotic (Kp-2H7): resistances
CN[C@@H]1[C@H](O)[C@H](NC)[C@H]2O[C@@]3(O)C(=O)C[C@@H](C)O[C@H]3O[C@@H]2[C@H]1O [spectinomycin],,,resistance of Kp-2H7 to antibiotic (Kp-2H7): resistances
CC[C@H]1OC(=O)C[C@@H](O)[C@H](C)[C@@H](O[C@@H]2O[C@H](C)[C@@H](O[C@H]3C[C@@](C)(O)[C@@H](O)[C@H](C)O3)[C@H](N(C)C)[C@H]2O)[C@@H](CC=O)C[C@@H](C)C(=O)/C=C/C(C)=C/[C@@H]1CO[C@@H]1O[C@H](C)[C@@H](O)[C@@H](OC)[C@H]1OC [tylosin],,,resistance of Kp-2H7 to antibiotic (Kp-2H7): resistances
Amoxicillin/Clavulanate,,,"MIC (Ka-11E12): >16 µg/mL; MIC (Kp-2H7; against Kp-2H7, Table 12): ≤4 µg/mL"
Gentamicin,,,"MIC (Ka-11E12): ≤2 µg/mL; MIC (Kp-2H7; against Kp-2H7, Table 12): ≤2 µg/mL"
Imipenem/Cilastatin,,,MIC (Ka-11E12): ≤0.25 µg/mL; MIC (Kp-2H7): ≤0.25 µg/mL
Sulbactam/Cefoperazone,,,"MIC (Ka-11E12): ≤4 µg/mL; MIC (Kp-2H7; against Kp-2H7, Table 12): ≤4 µg/mL"
Sulfamethoxazole-Trimethoprim,,,"MIC (Ka-11E12): ≤ 20 µg/mL; MIC (Kp-2H7; against Kp-2H7, Table 12): ≤20 µg/mL"
